Holding throughout (assay): Weeding effect in post-emergence stage
Format in all cases: in vivo
Holding throughout (details): Dose 15 g/ha; level of fresh weight growth control rate

For one experiment, the system named is Abutilon theophrasti. The method, boiled down: (§1)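 Pot-grown weeds were sprayed at the 2-3 leaf stage, 2 weeks after sowing, with compound in acetone plus Tween 80 and 1.5 liter/ha methyl oleate emulsifiable concentrate, diluted in water. Doses were 500, 250, 125, 60, 30, 15, 7.5 g/ha. Growth control was scored after 3 weeks in greenhouse; mean of three replicates.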

The subject of a further experiment is Alopecurus japonicus. In short, it runs like this: as §1
For the next experiment, the system named is Digitaria sanguinalis. In short, it runs like this: as §1
The next experiment has as its system Eleusine indica. The method, boiled down:
as §1

The next experiment concerns Setaria viridis. In short, it runs like this:
as §1

The test system of the next experiment is Echinochloa crusgalli. In short, it runs like this: as §1

Each structure is given as a SMILES string.

From patent US20230111310A1, “CARBOXYLIC ACID DERIVATIVE-SUBSTITUTED IMINO ARYL COMPOUND, PREPARATION METHOD THEREFOR, HERBICIDAL COMPOSITION AND USE THEREOF” (Qingdao Kingagroot Chemical Compound Co., Ltd., priority 2020, published 2023) come the findings set out here.

On to `CCOC(=O)COC(=O)[C@@H](C)O/N=C/c1cc(-n2c(=O)n(C)c(=S)n(C)c2=O)c(F)cc1Cl` [17(R)], for which the “Weeding effect in post-emergence stage, Abutilon theophrasti” value (shortened to “Weeding effect … Abutilon theophrasti”) in the experiment on Abutilon theophrasti is listed as 5 (Level 5: growth control rate is above 85%). In addition, the “Weeding effect in post-emergence stage, Alopecurus japonicus” value (“Weeding effect … Alopecurus japonicus” for short) in the experiment with Alopecurus japonicus is 5 (Level 5: growth control rate is above 85%). Moreover, the “Weeding effect in post-emergence stage, Digitaria sanguinalis” value (“Weeding effect … Digitaria sanguinalis” below) in the experiment on Digitaria sanguinalis is 5 (Level 5: growth control rate is above 85%). For the same compound, the “Weeding effect in post-emergence stage, Eleusine indica” value (“Weeding effect … Eleusine indica” below) in the experiment on Eleusine indica is on record as 5 (Level 5: growth control rate is above 85%). Moreover, the “Weeding effect in post-emergence stage, Setaria viridis” value (from here on “Weeding effect … Setaria viridis”) in the experiment on Setaria viridis is recorded as 5 (Level 5: growth control rate is above 85%). Also, the “Weeding effect in post-emergence stage, Echinochloa crusgalli” value (shortened to “Weeding effect … Echinochloa crusgalli”) with Echinochloa crusgalli was 5 (Level 5: growth control rate is above 85%).
Take `CC(C)=NOC(=O)[C@@H](C)O/N=C/c1cc(-n2c(=O)n(C)c(=S)n(C)c2=O)c(F)cc1Cl` [20(R)]: the “Weeding effect … Abutilon theophrasti” value in the experiment with Abutilon theophrasti is 5 (Level 5: growth control rate is above 85%). In addition, the “Weeding effect … Alopecurus japonicus” value with Alopecurus japonicus is reported as 5 (Level 5: growth control rate is above 85%). Also, the “Weeding effect … Digitaria sanguinalis” value in the experiment with Digitaria sanguinalis is 5 (Level 5: growth control rate is above 85%). The “Weeding effect … Eleusine indica” value in the experiment on Eleusine indica is reported as 5 (Level 5: growth control rate is above 85%). In the experiment on Setaria viridis, the “Weeding effect … Setaria viridis” value is given as 5 (Level 5: growth control rate is above 85%). In addition, in the experiment with Echinochloa crusgalli, the “Weeding effect … Echinochloa crusgalli” value is 5 (Level 5: growth control rate is above 85%).
Regarding `C[C@@H](O/N=C/c1cc(-n2c(=O)n(C)c(=S)n(C)c2=O)c(F)cc1Cl)C(=O)OCC1CCCO1` (stereo partly drawn) [24(R)], the “Weeding effect … Abutilon theophrasti” value with Abutilon theophrasti is 5 (Level 5: growth control rate is above 85%). In the experiment with Alopecurus japonicus, the “Weeding effect … Alopecurus japonicus” value is given as 5 (Level 5: growth control rate is above 85%). Moreover, the “Weeding effect … Digitaria sanguinalis” value in the experiment on Digitaria sanguinalis is given as 5 (Level 5: growth control rate is above 85%). Further, the “Weeding effect … Eleusine indica” value with Eleusine indica is given as 5 (Level 5: growth control rate is above 85%). Further, the “Weeding effect … Setaria viridis” value in the experiment with Setaria viridis is 5 (Level 5: growth control rate is above 85%). Also, in the experiment with Echinochloa crusgalli, the “Weeding effect … Echinochloa crusgalli” value is given as 5 (Level 5: growth control rate is above 85%).
With `C[C@@H](O/N=C/c1cc(-n2c(=O)n(C)c(=S)n(C)c2=O)c(F)cc1Cl)C(=O)OCc1ccco1` [26(R)], the “Weeding effect … Abutilon theophrasti” value with Abutilon theophrasti is listed as 5 (Level 5: growth control rate is above 85%). The “Weeding effect … Alopecurus japonicus” value in the experiment on Alopecurus japonicus was 5 (Level 5: growth control rate is above 85%). In the experiment on Digitaria sanguinalis, the “Weeding effect … Digitaria sanguinalis” value is listed as 5 (Level 5: growth control rate is above 85%). In addition, the “Weeding effect … Eleusine indica” value in the experiment with Eleusine indica is listed as 5 (Level 5: growth control rate is above 85%). Also, in the experiment on Setaria viridis, the “Weeding effect … Setaria viridis” value was 5 (Level 5: growth control rate is above 85%). Besides, the “Weeding effect … Echinochloa crusgalli” value in the experiment on Echinochloa crusgalli is recorded as 5 (Level 5: growth control rate is above 85%).
On to `C[C@@H](O/N=C/c1cc(-n2c(=O)n(C)c(=S)n(C)c2=O)c(F)cc1Cl)C(=O)OCc1ccccc1` [42(R)], for which the “Weeding effect … Abutilon theophrasti” value in the experiment with Abutilon theophrasti is 5 (Level 5: growth control rate is above 85%). The “Weeding effect … Alopecurus japonicus” value in the experiment with Alopecurus japonicus was 4 (Level 4: growth control rate is greater than or equal to 60% and less than 85%). For the same compound, the “Weeding effect … Digitaria sanguinalis” value in the experiment on Digitaria sanguinalis is 5 (Level 5: growth control rate is above 85%). Moreover, the “Weeding effect … Eleusine indica” value in the experiment with Eleusine indica is listed as 5 (Level 5: growth control rate is above 85%). In addition, in the experiment with Setaria viridis, the “Weeding effect … Setaria viridis” value was 5 (Level 5: growth control rate is above 85%). Also, the “Weeding effect … Echinochloa crusgalli” value in the experiment with Echinochloa crusgalli was 5 (Level 5: growth control rate is above 85%).
Take `C[C@@H](O/N=C/c1cc(-n2c(=O)n(C)c(=S)n(C)c2=O)c(F)cc1Cl)C(=O)OCc1cccnc1` [59(R)]: the “Weeding effect … Abutilon theophrasti” value in the experiment on Abutilon theophrasti was 5 (Level 5: growth control rate is above 85%). Besides, in the experiment on Alopecurus japonicus, the “Weeding effect … Alopecurus japonicus” value was 4 (Level 4: growth control rate is greater than or equal to 60% and less than 85%). Further, in the experiment with Digitaria sanguinalis, the “Weeding effect … Digitaria sanguinalis” value is given as 5 (Level 5: growth control rate is above 85%). For the same compound, in the experiment with Eleusine indica, the “Weeding effect … Eleusine indica” value is given as 5 (Level 5: growth control rate is above 85%). The “Weeding effect … Setaria viridis” value with Setaria viridis is 5 (Level 5: growth control rate is above 85%). The “Weeding effect … Echinochloa crusgalli” value in the experiment with Echinochloa crusgalli is 5 (Level 5: growth control rate is above 85%).
In the case of `C[C@@H](O/N=C/c1cc(-n2c(=O)n(C)c(=S)n(C)c2=O)c(F)cc1Cl)C(=O)OCc1ccncc1` [60(R)], the “Weeding effect … Abutilon theophrasti” value in the experiment with Abutilon theophrasti is given as 5 (Level 5: growth control rate is above 85%). Besides, in the experiment on Alopecurus japonicus, the “Weeding effect … Alopecurus japonicus” value was 4 (Level 4: growth control rate is greater than or equal to 60% and less than 85%). The “Weeding effect … Digitaria sanguinalis” value in the experiment on Digitaria sanguinalis is recorded as 5 (Level 5: growth control rate is above 85%). In addition, the “Weeding effect … Eleusine indica” value with Eleusine indica is reported as 5 (Level 5: growth control rate is above 85%). Also, the “Weeding effect … Setaria viridis” value in the experiment with Setaria viridis is 5 (Level 5: growth control rate is above 85%). Also, in the experiment on Echinochloa crusgalli, the “Weeding effect … Echinochloa crusgalli” value is 5 (Level 5: growth control rate is above 85%).
For `CC[C@@H](O/N=C/c1cc(-n2c(=O)n(C)c(=S)n(C)c2=O)c(F)cc1Cl)C(=O)OC` [72(R)], the “Weeding effect … Abutilon theophrasti” value in the experiment on Abutilon theophrasti is listed as 5 (Level 5: growth control rate is above 85%). Also, the “Weeding effect … Alopecurus japonicus” value in the experiment with Alopecurus japonicus is listed as 5 (Level 5: growth control rate is above 85%). In the experiment on Digitaria sanguinalis, the “Weeding effect … Digitaria sanguinalis” value is given as 5 (Level 5: growth control rate is above 85%). In addition, the “Weeding effect … Eleusine indica” value in the experiment on Eleusine indica was 5 (Level 5: growth control rate is above 85%). Besides, the “Weeding effect … Setaria viridis” value in the experiment with Setaria viridis is on record as 5 (Level 5: growth control rate is above 85%). For the same compound, in the experiment on Echinochloa crusgalli, the “Weeding effect … Echinochloa crusgalli” value is listed as 5 (Level 5: growth control rate is above 85%).
Regarding `CCOC(=O)[C@H](O/N=C/c1cc(-n2c(=O)n(C)c(=S)n(C)c2=O)c(F)cc1Cl)C1CC1` [76(R)], in the experiment on Abutilon theophrasti, the “Weeding effect … Abutilon theophrasti” value was 5 (Level 5: growth control rate is above 85%). Also, in the experiment with Alopecurus japonicus, the “Weeding effect … Alopecurus japonicus” value is reported as 5 (Level 5: growth control rate is above 85%). Further, the “Weeding effect … Digitaria sanguinalis” value in the experiment with Digitaria sanguinalis is given as 5 (Level 5: growth control rate is above 85%). In addition, the “Weeding effect … Eleusine indica” value in the experiment with Eleusine indica is recorded as 5 (Level 5: growth control rate is above 85%). Also, the “Weeding effect … Setaria viridis” value in the experiment with Setaria viridis was 5 (Level 5: growth control rate is above 85%). The “Weeding effect … Echinochloa crusgalli” value in the experiment with Echinochloa crusgalli was 5 (Level 5: growth control rate is above 85%).
Take `COC[C@@H](O/N=C/c1cc(-n2c(=O)n(C)c(=S)n(C)c2=O)c(F)cc1Cl)C(=O)OC` [80(R)]: the “Weeding effect … Abutilon theophrasti” value with Abutilon theophrasti is 5 (Level 5: growth control rate is above 85%). Also, the “Weeding effect … Alopecurus japonicus” value with Alopecurus japonicus is listed as 5 (Level 5: growth control rate is above 85%). The “Weeding effect … Digitaria sanguinalis” value with Digitaria sanguinalis is 5 (Level 5: growth control rate is above 85%). In addition, the “Weeding effect … Eleusine indica” value with Eleusine indica is given as 5 (Level 5: growth control rate is above 85%). Further, the “Weeding effect … Setaria viridis” value in the experiment with Setaria viridis is given as 5 (Level 5: growth control rate is above 85%). For the same compound, the “Weeding effect … Echinochloa crusgalli” value with Echinochloa crusgalli is 5 (Level 5: growth control rate is above 85%).
With `COC(=O)[C@@H](C)O/N=C/c1cc(-n2c(=O)n(C)c(=S)n(C)c2=O)c(F)cc1Br` [83(R)], the “Weeding effect … Abutilon theophrasti” value in the experiment on Abutilon theophrasti is 5 (Level 5: growth control rate is above 85%). For the same compound, in the experiment with Alopecurus japonicus, the “Weeding effect … Alopecurus japonicus” value was 4 (Level 4: growth control rate is greater than or equal to 60% and less than 85%). For the same compound, in the experiment with Digitaria sanguinalis, the “Weeding effect … Digitaria sanguinalis” value was 4 (Level 4: growth control rate is greater than or equal to 60% and less than 85%). Moreover, the “Weeding effect … Eleusine indica” value with Eleusine indica is given as 5 (Level 5: growth control rate is above 85%). Further, the “Weeding effect … Setaria viridis” value with Setaria viridis is on record as 5 (Level 5: growth control rate is above 85%). The “Weeding effect … Echinochloa crusgalli” value with Echinochloa crusgalli was 5 (Level 5: growth control rate is above 85%).
As to `CCOC(=O)[C@@H](C)O/N=C/c1cc(-n2c(=O)n(C)c(=S)n(C)c2=O)c(F)cc1Br` [84(R)], the “Weeding effect … Abutilon theophrasti” value with Abutilon theophrasti is 5 (Level 5: growth control rate is above 85%). Also, the “Weeding effect … Alopecurus japonicus” value with Alopecurus japonicus was 4 (Level 4: growth control rate is greater than or equal to 60% and less than 85%). Besides, the “Weeding effect … Digitaria sanguinalis” value in the experiment on Digitaria sanguinalis is 4 (Level 4: growth control rate is greater than or equal to 60% and less than 85%). Moreover, the “Weeding effect … Eleusine indica” value in the experiment with Eleusine indica is reported as 5 (Level 5: growth control rate is above 85%). Also, the “Weeding effect … Setaria viridis” value in the experiment on Setaria viridis was 5 (Level 5: growth control rate is above 85%). In addition, the “Weeding effect … Echinochloa crusgalli” value in the experiment with Echinochloa crusgalli is 5 (Level 5: growth control rate is above 85%).
On to `COC(=O)[C@@H](C)O/N=C/c1cc(-n2c(=O)n(C)c(=S)n(C)c2=O)c(F)cc1C(F)(F)F` [85(R)], for which the “Weeding effect … Abutilon theophrasti” value with Abutilon theophrasti is given as 5 (Level 5: growth control rate is above 85%). In addition, the “Weeding effect … Alopecurus japonicus” value with Alopecurus japonicus was 4 (Level 4: growth control rate is greater than or equal to 60% and less than 85%). Besides, the “Weeding effect … Digitaria sanguinalis” value with Digitaria sanguinalis is given as 5 (Level 5: growth control rate is above 85%). The “Weeding effect … Eleusine indica” value in the experiment with Eleusine indica is reported as 5 (Level 5: growth control rate is above 85%). Also, the “Weeding effect … Setaria viridis” value with Setaria viridis was 5 (Level 5: growth control rate is above 85%). Besides, the “Weeding effect … Echinochloa crusgalli” value with Echinochloa crusgalli is 5 (Level 5: growth control rate is above 85%).
